Data taken from publication PMC5471453, “Dual-targeted peptide-conjugated multifunctional fluorescent probe with AIEgen for efficient nucleus-specific imaging and long-term tracing of cancer cells” (Chemical Science, 2017).

Tests used:
[1] = test system: A375 cells co-cultured with MDA-MB-231 cells or HLF cells; experiment: Leak-free marking: stained A375 cells co-cultured with unstained cells; type: cell-based, human; conditions: co-cultured with MDA-MB-231 or HLF cells for 24 h; CLSM
Description: The cytocompatible nature of TCNTP and its precisely targeted interaction with organelles may account for the leak-free marking inside cells. A375 cells stained by TCNTP were co-cultured with MDA-MB-231 cells or human lung fibroblast (HLF) cells (normal human cell line), in order to evaluate whether TCNTP could be utilized to discriminate between different cell lines. TCNTP could easily stain the MDA-MB-231 cells and HLF cells in monoculture experiment (Fig. S22 ^†).
The excellent intracellular preservation of TCNTP may be used to develop novel fluorescent probes for differentiating specific cancerous cells from normal cells and for tracing diffusion, necrosis, shrinkage and suppression processes of tumor cells.
Fig. 6 The experimental scheme of TCNTP-stained (A) or Hoechst 33258-stained (F) A375 cells co-cultured with unstained cells. The CLSM imaging of co-cultivated TCNTP-stained (B) A375 cells and unstained MDA-MB-231 cells (the blue ellipses) or (D) TCNTP-stained A375 cells and unstained HLF cells (the blue ellipses). The average fluorescence intensity of TCNTP in four partial enlarged views (C and E). […] The average fluorescence intensity of Hoechst 33258 in four partial enlarged views (H and J). The blue fluorescence channel: excitation wavelength, 405 nm; emission collected, 425–485 nm. The yellow fluorescence channel: excitation wavelength, 405 nm; emission collected, 495–575 nm. […]

A375 cells = experiment: Long-term tracing of cancer cells over culture cycles (CLSM); type: cell-based, human; conditions: 3 μM for 4 h, after the fifth culture cycle (5 d)
Procedure: Due to reverse diffusion, most conventional dyes cannot be retained in living cells for more than a few hours.[35] Although some cell-tracker fluorescence dyes, for example Hoechst stains, can remain in viable cells for a few generations, they bind to DNA and thus interfere with DNA replication during cell division which can be cytotoxic. […] A375 cells were incubated separately with each of 3 μM TCNTP and Hoechst 33258. After 4 h incubation, the probe (or dye) was discarded and the labelled cells continued to be cultured overnight. Then the labelled cells were digested and divided into two dishes for another overnight incubation, referred to as one culture cycle. […] While the yellow fluorescence of TCNTP mainly distributed to cytoplasm for the third culture cycle (3 d) due to degradation of peptides and redistribution of the probe during cell division. […]
Fig. 5 The CLSM imaging of A375 cells treated with 3 μM TCNTP (A) and 3 μM Hoechst 33258 (B) for 4 h with further incubation for 1 d, 3 d and 5 d in cell culturing conditions. (C) The average fluorescence intensity of TCNTP and Hoechst 33258 in 60× microscopic field (the insets). […]
The cells stained by TCNTP were still visible even after the tenth culture cycle (Fig. S20 ^†), whereas very weak fluorescence signals were detected in the Hoechst 33258-stained cells after the third culture cycle (Fig. 5B). […]

[2] = test system: MDA-MB-231 cells, HT-1080 cells, A375 cells and HLF cells; experiment: MTT assay of cell viability; type: cell-based; conditions: 1 μM, 5 μM and 10 μM for 48 h in triplicate, 96-well plate; absorbance 570 nm; all the cell lines
Procedure: Japan). All fluorescence images were analysed with FV10-ASW V4.0 Image software (Olympus). Three-dimensional map of cells were used 3D rendering by Imaris (Andor-Bitplane, Zurich). Co-localization analysis were used Image-Pro Plus 6.0.
The cytotoxic potential of PyTPE, Hoechst 33258 and TCNTP was assessed using the MTT assay. MDA-MB-231 cells, HT-1080 cells, A375cells and HLF cells were respectively treated with PyTPE (1 μM, 5 μM and 10 μM), Hoechst 33258 (1 μM, 5 μM and 10 μM) and TCNTP (1 μM, 5 μM and 10 μM) for 48 h in triplicate in a 96-well plate. The absorbance of MTT at 570 nm was recorded by the Infinite M200 PRO […]
Fig. S21 Metabolic viability of (A) MDA-MB-231 cells, (B) HT-1080 cells, (C) A375 cells and (D) HLF cells after incubation with PyTPE and TCNTP at concentrations of 1 μM, 5 µM and 10 µM for 48 h. Black bars represent PyTPE, red bars represent TCNTP and blue bars […]
Fig. S22 Fluorescence images of HLF cells treated with 3 µM PyTPE (A) and TCNTP (B) with Hoechst 33258 of each formulation for 12h in cell culturing condition. The white scale […]

CN1CCN(c2ccc3[nH]c(-c4ccc5[nH]c(-c6ccc(O)cc6)nc5c4)nc3c2)CC1 [Hoechst 33258]
leakage of dye from stained A375 cells into unstained cells [1]: fast leakage
Active Cells Remaining (number of remaining stained living cells) (A375 cells; 10× microscopic field): 2%
Signal Remaining (fluorescence signal remaining) (A375 cells; 60× microscopic field): 6%
toxicity by MTT assay of cell viability [2]: high toxicity
